One block for each compound: values may come before it.
Assays:
Type in all cases: biochemical
[1] = target: T1, NAMPT (nicotinamide phosphoribosyltransferase) (Homo sapiens, UniProt P43490); test: LC-MS/MS of the reversible reaction; suppresses pHisNAMPT in western blot and blunts P3 production
T1 construct: recombinant, N-terminal His tag removed with thrombin

[2] = target: T1, NAMPT (nicotinamide phosphoribosyltransferase); test: NMN production fluorescence assay at […] compound (slight inhibition)
[3] = target: T1, NAMPT (nicotinamide phosphoribosyltransferase); test: spin desalting column with LC-MS detection of bound compound; EC50 from NMN production activation assay
Source text: spin desalting column with LC-MS detection of bound compound; EC50 from NMN production activation assay on NAMPT (nicotinamide phosphoribosyltransferase) | When NAMPT and SBI-797812 were mixed and applied to the column, SBI-797812 was detected in the column eluent

[4] = target: T1, NAMPT (nicotinamide phosphoribosyltransferase); test: NMN production LC-MS/MS assay with […] NAD+ (feedback inhibition)
[5] = target: T1, NAMPT (nicotinamide phosphoribosyltransferase); test: dose-dependent protein thermal shift and stimulation of NMN production

T1 sequence (P43490 whole entry): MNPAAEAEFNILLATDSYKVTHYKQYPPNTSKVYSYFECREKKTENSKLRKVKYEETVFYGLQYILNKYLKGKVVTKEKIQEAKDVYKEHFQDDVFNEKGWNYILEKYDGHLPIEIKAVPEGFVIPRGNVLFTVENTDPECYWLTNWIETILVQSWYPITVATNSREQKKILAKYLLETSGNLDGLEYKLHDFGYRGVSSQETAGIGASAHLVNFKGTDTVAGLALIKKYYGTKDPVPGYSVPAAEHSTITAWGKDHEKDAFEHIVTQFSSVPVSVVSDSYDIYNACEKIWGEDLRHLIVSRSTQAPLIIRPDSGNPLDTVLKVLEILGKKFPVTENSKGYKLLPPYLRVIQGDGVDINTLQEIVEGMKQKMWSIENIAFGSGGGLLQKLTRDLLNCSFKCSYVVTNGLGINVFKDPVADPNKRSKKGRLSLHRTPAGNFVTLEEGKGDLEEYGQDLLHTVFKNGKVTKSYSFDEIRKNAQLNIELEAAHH

SMILES: NC(=O)c1ccc[n+]([C@@H]2O[C@H](COP(=O)([O-])O)[C@@H](O)[C@H]2O)c1 [NMN]
LC-MS/MS of the reversible reaction; suppresses pHisNAMPT in western blot and bl [1]: While the pHisNAMPT band was suppressed by NMN or PP, NAM or PRPP had no effect

SMILES: O=C(NCc1ccccn1)Nc1ccc(S(=O)(=O)N2CC3CCC(C2)O3)cc1 [SBI-796950]
NMN production fluorescence assay at 2 μM compound (slight inhibition) [2]: The SBI-797812 isomer with the 2-pyridyl group, SBI-796950 (Fig. 1b), slightly inhibited NMN production (Fig. 1c).

EC50 [3]: 370 ± 60 nM
SMILES: O=C(NCc1ccncc1)Nc1ccc(S(=O)(=O)N2CC3CCC(C2)O3)cc1 [SBI-797812]

SMILES: NC(=O)c1ccc[n+]([C@@H]2O[C@H](COP(=O)([O-])OP(=O)(O)OC[C@H]3O[C@@H](n4cnc5c(N)ncnc54)[C@H](O)[C@@H]3O)[C@@H](O)[C@H]2O)c1 [NAD^+]
NMN production LC-MS/MS assay with 250 μM NAD+ (feedback inhibition) [4]: SBI-797812 relieved NAMPT inhibition mediated by NAD^+ (Fig. 2e).

SMILES: CCOC(=O)c1ccc(NC(=O)NCc2ccncc2)cc1 [SBI-136892]
dose-dependent protein thermal shift and stimulation of NMN production [5]: SBI-136892 (Fig. 1b), dose-dependently increased the NAMPT Tm (Supplementary Fig. 1a) and stimulated NAMPT-mediated NMN production

Reference: paper PMC6642140, “Boosting NAD^+ with a small molecule that activates NAMPT” (Nature Communications, 2019)
